Experiments:
[1] = Plasma levels >IC90 and plasma versus tissue levels on intermittent dosing (FIGS. 6A-6B); format: in vivo, human; settings: FIG. 6A
Source text: There is also evidence pointing to a role for the PI3K pathway in T lymphocytes, which may explain these immune dysregulations. For example, in mice, genetic inactivation of p110δ results in a decrease of the function of regulatory T-cells (TREGs), a subset population of T-cells. […] In some instances, PI3K5 inhibition results in various immune-mediated toxicities such as enterocolitis and skin toxicity due to TREG suppression, as well as infections due to suppression of B-cells and effector T-cells. In some instances, treatment regimens with small molecule PI3K5 delta (or PI3K5) inhibitors on an intermittent dosing schedule (IS) are used. However, in certain instances, progression of disease is observed in subjects who are treated for B-cell malignancies, including chronic lymphocytic leukemia (CLL) and lymphomas with small molecule PI3K5 inhibitors (e.g., parsaclisib (INCB050465)) on an IS dosing regimen (see FIG. 6B). […] In some embodiments, the methods of treatment and dosing regimens and schedules described herein provide an efficacious and tolerable treatment of cancer. In some embodiments, the methods of treatment and dosing regimens and schedules described herein improve the frequency, severity and time to onset of the adverse events (AEs) associated with PI3K delta inhibitors. […]

murine B-cell tumors = assay: Tumor exposure and retention (FIGS. 3 and 4); format: in vivo
[2] = system: patients with relapsed B-cell malignancies (FL, CLL/SLL); assay: Phase 1b study of Compound A35 as single agent: disease response rate; format: in vivo, human
Experimental: An intermittent dosing schedule on days 1-7 of a 28-day cycle was then evaluated after 2 cycles of daily dosing, or ≥3 cycles of daily dosing to reduce the risk of immune-related adverse events. For this analysis the intermittent schedule (IS) group is defined as patients who received Compound A35 alone or with rituximab daily for 2 cycles then switched to an intermittent schedule of 1 week per cycle, and the continuous schedule (CS) group is defined as patients who never switched to intermittent dosing or switched to intermittent dosing in cycle 4 or later cycles. Toxicity on CS is managed by a switch to IS.
In an ongoing Phase 1b study, Compound A35 was administered as a single agent in patients with relapsed B-cell malignancies. Patients have been enrolled in 3 cohorts: • Group A: 31 patients enrolled in a dose escalation phase of the study, with Compound A35 administered as a single agent at a dose of 60, 120, and 180 mg/day. In Group A, all patients began receiving Compound A35 on a CS. Approximately 1.5 years after the start of the study, 17 ongoing patients were switched to the IS to prevent delayed immune-mediated toxicities after various duration of exposure on the CS. […]
31 patients received Compound A35 monotherapy at doses ≥60 mg daily on the CS, of whom 2 discontinued Compound A35 in the first 2 cycles of therapy and 29 received >2 cycles.
A very high rate of disease response was reported in 30 patients evaluable for response in the dose escalation cohort, both in FL and CLL/SLL, with no difference in response rate across the 3 doses evaluated (Table 2).

[3] = All evaluable patients, 60 mg, n = 12
[4] = All evaluable patients, 120 mg, n = 12
[5] = All evaluable patients, 180 mg, n = 6
[6] = All evaluable patients, Total (all doses), n = 30
[7] = CLL/SLL, Total (all doses), n = 9
[8] = FL evaluable, Total (all doses), n = 21

retention in murine B-cell tumors compared to idelalisib (murine B-cell tumors; FIG. 4): preferential retention
tumor exposure (murine B-cell tumors; over a 4-hour and 24-hour period (FIG. 3)): preferential tumor exposure
SMILES: CN1CCC(c2ccccc2CC(C)(C)Nc2nc(N3CCOCC3)nc(-n3c(C(F)F)nc4ccccc43)n2)CC1 [Compound A35]
plasma levels versus tissue levels [1]: plasma levels underestimate tissue levels
Morphologic and/or metabolic complete response [2, 3]: (42%)
Morphologic and/or metabolic complete response, number of patients [2, 3]: 5
Overall response rate [2, 3]: (92%)
Overall response rate, number of patients [2, 3]: 11
Morphologic and/or metabolic complete response [2, 4]: (33%)
Morphologic and/or metabolic complete response, number of patients [2, 4]: 4
Overall response rate [2, 4]: (92%)
Overall response rate, number of patients [2, 4]: 11
Morphologic and/or metabolic complete response, number of patients [2, 5]: 0
Overall response rate [2, 5]: (83%)
Overall response rate, number of patients [2, 5]: 5
Morphologic and/or metabolic complete response [2, 6]: (30%)
Morphologic and/or metabolic complete response, number of patients [2, 6]: 9
Overall response rate [2, 6]: (90%)
Overall response rate, number of patients [2, 6]: 27
Morphologic complete response ([2]; CLL/SLL, 60 mg, n = 6): (50%)
Morphologic complete response, number of patients ([2]; CLL/SLL, 60 mg, n = 6): 3
Overall response rate ([2]; CLL/SLL, 60 mg, n = 6): (100%)
Overall response rate, number of patients ([2]; CLL/SLL, 60 mg, n = 6): 6
Morphologic complete response, number of patients ([2]; CLL/SLL, 120 mg, n = 2): 0
Overall response rate ([2]; CLL/SLL, 120 mg, n = 2): (100%)
Overall response rate, number of patients ([2]; CLL/SLL, 120 mg, n = 2): 2
Morphologic complete response, number of patients ([2]; CLL/SLL, 180 mg, n = 1): 0
Overall response rate ([2]; CLL/SLL, 180 mg, n = 1): (100%)
Overall response rate, number of patients ([2]; CLL/SLL, 180 mg, n = 1): 1
Morphologic complete response [2, 7]: (33%)
Morphologic complete response, number of patients [2, 7]: 3
Overall response rate [2, 7]: (100%)
Overall response rate, number of patients [2, 7]: 9
Morphologic and/or metabolic complete response ([2]; FL evaluable, 60 mg, n = 6): (33%)
Morphologic and/or metabolic complete response, number of patients ([2]; FL evaluable, 60 mg, n = 6): 2
Overall response rate ([2]; FL evaluable, 60 mg, n = 6): (83%)
Overall response rate, number of patients ([2]; FL evaluable, 60 mg, n = 6): 5
Morphologic and/or metabolic complete response ([2]; FL evaluable, 120 mg, n = 10): (40%)
Morphologic and/or metabolic complete response, number of patients ([2]; FL evaluable, 120 mg, n = 10): 4
Overall response rate ([2]; FL evaluable, 120 mg, n = 10): (90%)
Overall response rate, number of patients ([2]; FL evaluable, 120 mg, n = 10): 9
Morphologic and/or metabolic complete response, number of patients ([2]; FL evaluable, 180 mg, n = 5): 0
Overall response rate ([2]; FL evaluable, 180 mg, n = 5): (80%)
Overall response rate, number of patients ([2]; FL evaluable, 180 mg, n = 5): 4
Morphologic and/or metabolic complete response [2, 8]: (21%)
Morphologic and/or metabolic complete response, number of patients [2, 8]: 6
Overall response rate [2, 8]: (86%)
Overall response rate, number of patients [2, 8]: 18

— patent US20210299134A1, “TREATMENT OF B CELL MALIGNANCIES” (MEI Pharma, Inc., priority 2018, published 2021)
